Source: patent US7101841B2, “Carbohydrate-specific peptides which have a strong affinity and preparations method thereof” (Korea Institute of Science and Technology, priority 2001, dated 2006)

What was measured:
[1] = system: sLeX; assay: Peptide phage library biopanning against sLeX-BSA; assay type: binding; conditions: after three rounds of biopanning
Protocol: As described above, in order to obtain molecules having strong binding capacity to carbohydrates using repetitive structure of peptide, sialyl Lewis X (sLeX) existing in tumor cells or inflammation response cells was selected as a target, and a peptide binding to the sLeX well was selected by using peptide phage library and biopanning method. Particularly, sLeX-BSA(Oxford Glycoscience) was added into 0.1 M NaHCO3(pH 8.6) buffer solution until the concentration reached to 100 μg/ml. 150 μl of the above solution(sLeX-BSA 0.1 M NaHCO3) was loaded into one well of 96-well plate, and 150 μl of BSA 0.1 M NaHCO3(pH 8.6) was also loaded into the other well. The well plate was shaken to soak completely, and left for overnight at 4° C. The solution in 96-well plate was washed, followed by adding 200 μl of blocking solution(0.1 M ethanol amine, 0.1 M NaHCO3, pH 8.6) into the wells, and then the plate was left for overnight at 4° C. After blocking solution was removed from the 96-well plate, the plate was washed with 200 μl of TBS-T(50 mM Tris-HCl, pH 7.5, 150 mM NaCl, 0.1% [v/v] Tween-20). […]
180 μl of extraction solution was loaded into 3 ml of ER2537 culture solution(OD600=0.2–0.3) and cultured for 4.5 hours at 37° C. while shaking with 250 rpm. […] The amplified phage obtained above was diluted with various concentrations, and the proper concentration was calculated as follows. […]

[2] = target: sLeX; assay: BIAcore measurement of binding capacity of peptides on sLeX-BSA fixed CM5 chip
Protocol: To measure the binding capacity of peptides, BIAcore was used. CM5 made by gold and protruded with CM-dextran layer and carboxylic acid group was used as a chip. BSA (Oxford Glyco Science, USA) binding with sLeX was used as a ligand for fixing.
At first, chip surface was stabilized with 100 mM HEPES buffer solution (pH 8.0), and activated with the mixture of 0.4 M EDC (1-ethyl-3-[3′-dimethylaminopropyl]carbodiimide) and 0.1 M NHS (N-hydroxysuccunimide). And then, sodium acetate buffer(10 mM, pH 4.0) containing 0.05 mg/ml of sLeX-BSA or BSA was injected and fixed onto the surface of CM5 chip until the value of RU reached to 6,000. Chip surface remaining active state was substituted with 1.0 M ethanolamine. Target molecules were bound to CM5 chip, and binding buffer (0.01 M HEPES, […], 3 mM EDTA, 0.005% polysorbate 20, pH 7.4) was flowed on the chip surface for equilibration, and finally, bindng capacity was determined by flowing binding buffer containing peptides according to the concentrations. At that time, peptides were combined with their targets with different speed and slope according to the affinity of peptides and target molecules and the affinity between target molecules was measured from the each result. […]

Substance | binding capacity to sLeX relative to other selected peptides [1] | Kd ([2]; BIAcore, sLeX-BSA fixed on CM5 chip, read-out: Kp against sLeX) [mM] | strength of binding converted into the height of sensorgram ([2]; peptide flowed at 62.5 μM, sLeX-BSA fixed chip, FIG. 1) [RU]
peptide represented by the SEQ. ID NO.1: peptide composed of 12 amino acids selected by phage display for binding to sLeX (AHWIPRYSSPAT; synthetic peptide which have a strong affinity to carbohydrate) | better than that of the other peptides | – | –
AHWIPRYSSPAT [monomer] | – | 25.4 | 16
